Data: US8455537B2, “Estrogen receptor modulators and uses thereof” (University of Medicine and Dentistry of New Jersey, priority 2006, dated 2013)

How the values were obtained:
ERα = biological target: T1, ERα (Homo sapiens, UniProt P03372); test: NR peptide ERα ELISA kit, percentage of ER activation; format: biochemical; settings: 25 μM sample; normalized to vehicle control (DMSO) = 100%; over 100% agonist, below 100% antagonist; MCF-7 nuclear extract as ER source
T1 construct: presence of both ER and PR in the MCF-7 nuclear extract; (kit); host or cells: MCF-7 nuclear extract
T1 sequence (P03372 1-595): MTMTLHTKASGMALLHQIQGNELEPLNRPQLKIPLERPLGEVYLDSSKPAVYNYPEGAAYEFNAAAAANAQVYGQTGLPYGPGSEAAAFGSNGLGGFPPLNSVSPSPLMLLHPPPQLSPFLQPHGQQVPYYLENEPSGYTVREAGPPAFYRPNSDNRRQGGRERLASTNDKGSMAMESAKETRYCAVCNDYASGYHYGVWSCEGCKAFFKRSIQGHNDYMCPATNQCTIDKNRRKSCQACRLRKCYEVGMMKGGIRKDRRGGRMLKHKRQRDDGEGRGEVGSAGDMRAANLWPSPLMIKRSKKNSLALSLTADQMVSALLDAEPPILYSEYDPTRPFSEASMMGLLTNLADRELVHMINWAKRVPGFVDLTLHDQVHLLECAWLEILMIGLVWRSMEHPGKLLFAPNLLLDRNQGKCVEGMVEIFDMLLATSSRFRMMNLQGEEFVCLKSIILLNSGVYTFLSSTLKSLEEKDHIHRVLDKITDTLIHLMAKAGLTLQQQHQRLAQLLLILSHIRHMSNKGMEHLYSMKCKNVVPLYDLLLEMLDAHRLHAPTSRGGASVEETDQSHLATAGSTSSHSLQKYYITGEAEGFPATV
From the text: Relative units of light intensity for each test compound were normalized to the vehicle control (DMSO) and then expressed in percentage of ER activation. […] The data reported here represent results of three independent determinations in duplicate. Error bars represent the standard deviation of the three determinations.

[1] = biological target: T2, estrogen receptor alpha (ERα) (Homo sapiens, UniProt P03372); test: Gel filtration displacement assay, competitive binding with 3H-estradiol; settings: test compound 10 μM; 25 nM 3H-estradiol; 10 ng purified full-length ERα; no cold ligand = 100%; lower = stronger binding
T2 construct: 10 ng of purified full-length ERα (Active Motif, Carlsbad, Calif.); purchased Active Motif, Carlsbad, Calif
T2 sequence (P03372 1-595): T1 sequence (P03372 1-595)
Experimental: A gel filtration displacement assay for estrogen receptor alpha (ERα) was employed to assess competitive binding by ER antagonists among the test compounds in 10 μM. ER binding assays were conducted in duplicate in 50 mM Tris-HCl, pH7.5, 1 mM EDTA, 20% Glycerol and 1 mM DTT buffer. Radioligands that were used include [6, 7-^3H] estradiol (specific activity 44 Ci/mmol, Amersham Biosciences).
Following 1-hour incubation, assays were terminated by filtration through Whatman GF/B filters. […] Counts were normalized to the negative controls (no cold ligand) as the percentage of bound radiolabeled-estradiol remaining after separating bound radioligand from free radioligand. The negative controls were taken as 100% bound radioligand remaining. […] Results are reported as the average values of three independent experiments in duplicate. Error bars represent standard deviation of the three determinations (FIG. 2).

Compound	percentage of ER activation (ERα) [%]	percentage of bound radiolabeled-estradiol remaining [1] [%]
CCC(=O)C1=C(O)CCC(c2cccc(Oc3ccccc3)c2)C1=O (stereo not shown) [Compound A]	53.1	65.9
CC#C[C@]1(O)CC[C@H]2[C@@H]3CCC4=CC(=O)CCC4=C3[C@@H](c3ccc(N(C)C)cc3)C[C@@]21C [mifepristone, reference compound]	51.7	> 100
C[C@]12CC[C@@H]3c4ccc(O)c(O)c4CC[C@H]3[C@@H]1CC[C@@H]2O [4-hydroxy estradiol]	196.3	
O=C1c2ccccc2C(=O)N1CN(C(=O)c1ccccc1)c1ccc(O)cc1 [Compound B]	69	89.8
